Measurements: US20090247543A1, “GATIFLOXACIN-CONTAINING AQUEOUS LIQUID PREPARATION” (Kyorin Pharmaceutical Co., Ltd., priority 2008, published 2009)
Converted amounts (≈) assume the structure as drawn.

Tested on: Enterococcus faecalis (opthalmologic clinical isolated strain A-2-7)
Experiment: Minimal inhibitory concentration used as indicator for T>MIC
Assay type: cell-based

With `COc1c(N2CCNC(C)C2)c(F)cc2c(=O)c(C(=O)O)cn(C3CC3)c12` (racemic) [Gatifloxacin, (±)-1-cyclopropyl-6-fluoro-1,4-dihydro-8-methoxy-7-(3-methyl-1-piperazinyl)-4-oxo-3-quinolinecarboxylic acid] as the molecule, how does the MIC read?
The MIC was 0.39 µg/mL (≈ 1.04 µM).
